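Results reflect a 48-hour exposure of cells in 96-well plates to compound at five concentrations. GI50: concentration for 50% inhibition of growth. The concentration for full growth arrest is given as TGI.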 Bounds are passed on as bounds.

Holding throughout (assay): NCI anticancer screen, dose series, 48 h
Test [1] has as its system OVCAR-4 ovarian.
The subject of test [2] is SW-620 colon.
Test [3] relates to SF-539 CNS.
For test [4], the system named is SK-MEL-28 melanoma.
The test system of test [5] is SK-MEL-2 melanoma.
Test [6] relates to UACC-62 melanoma.
Test [7] deals with U251 CNS.
Test [8] relates to MCF7 breast.
Test [9] has as its system A549 NSCLC.
The test system of test [10] is SNB-19 CNS.

On to `C/C(=C\c1csc(C)n1)[C@@H]1C[C@@H]2O[C@]2(C)CCC[C@H](C)[C@H](O)[C@@H](C)C(=O)C(C)(C)[C@@H](O)CC(=O)N1`, for which the GI50 in [1] was 0.000318 µM; in test [2] it was 0.00016 µM; in test [3], 0.000165 µM; in test [4] it was 0.000219 µM; in test [5], below 1e-05 µM; in test [6], 0.000171 µM. The GI50 in [7] is 0.000147 µM; in test [8], 0.0795 nM; in test [9] it was 9.28e-05 µM; in test [10], 0.000347 µM. For the same compound, the TGI in test [1] was 0.000821 µM; in test [2] it was 0.00042 µM; in test [3] it was 0.000369 µM; in [4] it was 0.000436 µM; in [5], below 1e-05 µM; in test [6], 0.000412 µM. For the same compound, the TGI in [7] was 0.000391 µM; in test [8] it was 0.00037 µM; in test [9], 0.000294 µM; in [10] it was 0.000508 µM.
Consider `CC1=C(C(=O)Nc2ccc3[nH]ncc3c2)C(c2ccc(F)cc2)N=C(c2ccc(C(F)(F)F)nc2)N1` (stereo unspecified), for which the GI50 is 12.4 µM in test [1]; 11.6 µM in test [2]; 7.61 µM in test [3]; above 19.9 µM in test [4]; 9.49 µM in [5]; 10.1 µM in test [6]. The GI50 was 17.1 µM in test [7], 7710 nM in test [8], 13.4 µM in [9] and above 23.6 µM in test [10]. In addition, the TGI in [1], in test [2], in [3], in test [4], in test [5] and in test [6] was above 25 µM throughout. Moreover, the TGI in test [7], in test [8], in [9] and in test [10] was above 25 µM throughout.
`COc1cc2c(Oc3ccc(-c4cnc(Nc5ccc(F)cc5)n(C)c4=O)cc3F)ccnc2cc1OCCCN1CCOCC1`: the GI50 was 1.74 µM in test [1]; 0.464 µM in test [3]; 0.97 µM in test [4]; 1.53 µM in test [5]; 1.66 µM in test [7]; 783 nM in test [8]. The GI50 in test [9] was 1.66 µM; in [10] it was 2.03 µM. In addition, the TGI in test [1] came out at 7.49 µM; in [3], 1.62 µM; in [4], 2.28 µM; in [5], 3.19 µM; in test [7], 3.2 µM; in test [8], 2.47 µM. The TGI came out at 3.42 µM in test [9] and 4.52 µM in test [10].
Consider `FC(F)(F)c1cccc(CNC2CCN(CCc3ccccc3)CC2)c1`, for which the GI50 is 23.1 µM in [1]; 36.9 µM in test [2]; 15.3 µM in test [3]; 16 µM in test [4]; 23.5 µM in [5]; 13.9 µM in test [6]. Further, the GI50 is 15.6 µM in test [7], 16000 nM in test [8], 40.3 µM in [9] and 30.8 µM in test [10]. Besides, the TGI was above 100 µM in test [1]; above 100 µM in test [2]; 30.2 µM in test [3]; 31.7 µM in test [4]; 47.2 µM in test [5]; 30.7 µM in test [6]. Also, the TGI is 35.6 µM in [7], 34.6 µM in [8], above 100 µM in test [9] and above 100 µM in test [10].
Consider `CC(=O)O[C@H]1C[C@@H]2[C@@]3(C)CC[C@H]4C[C@@]4(C)[C@@H]3CC[C@@]2(C)C2=CCC3=C(COC3=O)[C@]21C`, for which the GI50 in test [1] was 25 µM; in [2] it was 19.4 µM; in test [3], 15.7 µM; in test [4] it was 21.6 µM; in test [5], 36.3 µM; in test [6], 16.6 µM. Besides, the GI50 was 17.4 µM in test [7], 24000 nM in test [8], 20.8 µM in [9] and 24.3 µM in test [10]. Besides, the TGI in [1] is 60.2 µM; in test [2] it was 43.6 µM; in test [3], 32.5 µM; in test [4] it was 44 µM; in test [5], above 100 µM; in test [6], 36.4 µM. In addition, the TGI in test [7] amounted to 36.3 µM; in test [8] it was 89.8 µM; in test [9], 44.4 µM; in test [10], 69.7 µM.
As to `COc1cc(NC(=O)COc2ccccc2)c(C(N)=O)cc1OC`, the GI50 was above 100 µM in test [1]; 0.646 µM in test [2]; 0.563 µM in test [3]; 24.2 µM in test [4]; 2.52 µM in test [6]; 0.777 µM in test [7]. Further, the GI50 in [8] is 661 nM; in test [9], 0.917 µM; in test [10], 3.31 µM. Further, the TGI is above 100 µM in [1]; above 100 µM in [2]; 3.59 µM in test [3]; above 100 µM in test [4]; above 100 µM in [6]; 17.9 µM in test [7]. Besides, the TGI is above 100 µM in [8], above 100 µM in test [9] and 51.9 µM in [10].
Turning to `CCN1CCN(CC(=O)Nc2nc3ccc(NCc4ccc(Br)cc4)cc3s2)CC1`, the GI50 is 3.19 µM in test [1]; 1.75 µM in test [3]; 1.92 µM in test [4]; 1.95 µM in [5]; 1.9 µM in test [6]; 1.92 µM in [7]. The values for the GI50 in test [8] and in test [10] were 2050 nM and 2.6 µM, respectively. Moreover, the TGI in test [1] was found to be 26.8 µM; in test [3] it was 3.24 µM; in test [4], 3.76 µM; in test [5], 3.63 µM; in [6], 3.52 µM; in [7], 3.79 µM. The TGI in [8] came to 4.9 µM; in [10], 6.93 µM.
On to `O=C(NO)c1ccc(CNc2cccc3nc(C4CC4)n(-c4ccccc4)c(=O)c23)cc1`, for which the GI50 was 2.28 µM in [1]; 1.81 µM in test [2]; 1.71 µM in test [3]; 2.01 µM in test [4]; 2.76 µM in test [5]; 1.96 µM in test [6]. The GI50 in [7] is 1.63 µM; in test [8], 3350 nM; in test [9] it was 2.23 µM; in test [10], 2.61 µM. Further, the TGI turned out to be 21.9 µM in test [1]; 6.01 µM in [2]; 3.53 µM in test [3]; 4.26 µM in test [4]; 7.45 µM in test [5]; 4.66 µM in test [6]. Moreover, the TGI was 3.23 µM in test [7], 18 µM in [8], 5.74 µM in [9] and 9.68 µM in test [10].
As to `O=S(=O)(Nc1ccccc1)c1ccc(C2CC3(Cl)C(Cl)=C(Cl)C2(Cl)C3(Cl)Cl)cc1` (stereo unspecified), the GI50 in test [1] was 3.37 µM; in test [3], 2.32 µM; in [5], 2.23 µM; in [6], 1.66 µM; in [7], 2.25 µM; in [8], 2590 nM. Moreover, the values for the GI50 in test [9] and in [10] were 3.11 µM and 3.74 µM, respectively. For the same compound, the TGI in [1] worked out at 11.1 µM; in [3], 5.79 µM; in test [5], 4.16 µM; in test [6], 3.58 µM; in [7], 5.52 µM; in [8], 7.67 µM. In addition, the figures for the TGI in [9] and in test [10] were 11 µM and 13.6 µM, respectively.
Regarding `OC[C@H]1C[C@](O)(c2ccc(F)cc2)[C@@H](c2ccc(F)cc2)O1`, the GI50 in test [1], in test [2], in test [3], in test [4], in [6] and in test [7] was above 100 µM each time. The results for the GI50 in test [8], in test [9] and in test [10] were above 100000 nM, above 100 µM and above 100 µM, respectively. Moreover, the TGI in test [1], in [2], in [3], in test [4], in [6] and in [7] was above 100 µM each time. For the same compound, the TGI in [8], in test [9] and in [10] was above 100 µM throughout.
For `CCOC(=O)C#Cc1c(C(=O)OCC)nnn1[C@@H]1O[C@H](COC)[C@@H](OC)[C@H]1OC`, the GI50 in test [1] was 2.02 µM; in test [2], 1.99 µM; in test [4], 3.49 µM; in test [5] it was 16.6 µM; in test [6], 2.19 µM; in [7], 17 µM. Moreover, the GI50 in test [8] is 2850 nM; in test [9] it was 20.9 µM; in [10], 69.4 µM. Besides, the TGI in [1] was 4.43 µM; in [2] it was 4.06 µM; in [4] it was 12.8 µM; in test [5], 32.9 µM; in test [6], 5.41 µM; in [7] it was 31.3 µM. Also, the TGI is 12.7 µM in test [8], 40.4 µM in [9] and above 100 µM in test [10].
`O=S(=O)(O)C(c1ccccc1)C(O)c1ccccc1` (stereo unspecified): the TGI in test [1], in test [2], in test [4], in test [5], in [6] and in test [7] was above 100 µM throughout. In addition, the TGI in [8], in [9] and in test [10] was above 100 µM throughout.
For the compound `O=C1C[C@@H]2OCC=C3C[N+]4([O-])CC[C@]56c7ccccc7N1[C@H]5[C@H]2[C@H]3C[C@@H]64` (stereo partly specified), the GI50 in test [1], in [2], in test [3], in [4], in test [6] and in test [7] was above 100 µM each time. The GI50 in test [8] was above 100000 nM; in test [9] it was above 100 µM; in [10] it was above 100 µM. Further, the TGI in test [1], in test [2], in test [3], in test [4], in test [6] and in test [7] was above 100 µM throughout. For the same compound, the TGI in test [8], in [9] and in test [10] was above 100 µM each time.
As for `NS(=O)(=O)c1cc2c(cc1Cl)NCNS2(=O)=O`, the TGI in test [1], in test [2], in [3], in test [4], in test [5] and in test [7] was above 100 µM throughout. Further, the TGI in test [8], in [9] and in [10] was above 100 µM in each case.
With `C=CCN(CC=C)Cc1c[nH]c2ccccc12`, the GI50 was above 100 µM in test [1]; 26.3 µM in [2]; above 100 µM in test [4]; 15.3 µM in [5]; 18.1 µM in test [6]; 13.2 µM in test [7]. Also, the figures for the GI50 in [8], in test [9] and in [10] were 3000 nM, 31.5 µM and above 100 µM, respectively. Moreover, the TGI is above 100 µM in test [1]; above 100 µM in [2]; above 100 µM in [4]; 38.3 µM in test [5]; 54.1 µM in test [6]; 31.2 µM in test [7]. Moreover, the TGI in test [8] is 19.7 µM; in test [9], above 100 µM; in test [10], above 100 µM.
Turning to `COC1=CC(=O)C(O)=C(CC2(C)C(C)CCC3(C)C2CCCC3(C)C)C1=O` (stereo unspecified), the TGI was above 100 µM in test [1]; 30.5 µM in [2]; 9.49 µM in [3]; 18.2 µM in [4]; 15.5 µM in test [5]; 5.96 µM in test [6]. Moreover, the TGI came out at 13.8 µM in test [7], 11.6 µM in test [9] and 19.3 µM in [10].
For `O=C(CCN1CCOCC1)Nc1ccc(Cn2nnc3c2C(=O)c2nnn(Cc4ccc(NC(=O)CCN5CCOCC5)cc4)c2C3=O)cc1`, the GI50 in test [1] is 1.36 µM; in [2], 2.58 µM; in test [3], 0.913 µM; in test [6], 1.53 µM; in test [7], 4.25 µM; in test [8] it was 271 nM. The figures for the GI50 in test [9] and in [10] were above 100 µM and 1.56 µM, respectively. Also, the TGI in test [1] was 3.44 µM; in test [2], above 100 µM; in test [3], 5.11 µM; in [6], 3.14 µM; in [7], 18.4 µM; in [8] it was 0.978 µM. In addition, the TGI is above 100 µM in test [9] and 3.07 µM in test [10].

(Values after PubChem BioAssay (NCI).)
